Test results: patent US6537991B1, “Method of treating a peripheral neuropathic pain” (AstraZeneca AB, priority 1999, dated 2003)
Where two headings read alike, the source gives them in different places.

Columns and labels:
[1] = system: chronic constrictive injury (CCI) model (loosely ligated common sciatic nerve); assay: chronic constrictive injury (CCI) model of peripheral mononeuropathy; type: in vivo, rat; conditions: oral test doses of 0.3, 3 and 30 mg/kg/day (dosed four times a day)
Source text: The development of a rodent model of peripheral mononeuropathy (Pain, 33, 1988, 87-107; Exp Brain Res, 113, 1997, 200-206; and Exp Brain Res, 120, 1998, 432-438) has provided a new approach for studies of post-injury neuropathic pain. The model produces neuropathic pain syndromes in the rat by loosely ligating the common sciatic nerve and has been described as a chronic constrictive injury (CCI) model. The behavioural, morphological and autoradiographic data obtained from the rodents in this model closely represent the clinical features of post-injury neuropathic pain. […] This model has value therefore in predicting efficacy of compounds against neuropathic pain.
The identification of compounds which are useful in the treatment or prevention of neuropathic pain is the subject of the present invention. These properties may be assessed, for example, using the CCI model as described in Pain, 33, 1988, 87-107.

[2] = system: chronic constrictive injury (CCI) model (loosely ligated common sciatic nerve); conditions: cited from earlier work

CCN(Cc1cc(Cl)ccc1OCC(C)C)c1ccc(C(=O)NS(=O)(=O)c2c(C)noc2C)nn1 [d), N-(3,5-dimethylisoxazol-4-ylsulphonyl)-6-[N-(5-chloro-2-(2-methylpropoxy)benzyl)-N-ethylamino]pyridazine-3-carboxamide]
activity in the CCI model [1]: demonstrates activity

NCC1(CC(=O)O)CCCCC1 [gabapentin]
activity in the CCI model ([2]; Eur J Pharmacol, 324, 1997, 157-160): demonstrates activity

O=C(c1ccccc1)c1ccc2n1CCC2C(=O)O (stereo not drawn) [ketorolac tromethamine]
activity compared to morphine ([2]; dosed intrathecally, Can J Anaesth, 1996, 43, 967): modest activity
